Consider 1 molecule from US20210161999A1, “COMPOSITIONS AND METHODS RELATED TO OVERCOMING INNATE IMMUNE BARRIERS TO CANCER IMMUNOTHERAPY” (Health Research, Inc., priority 2018, published 2021).

Holding throughout (format): cell-based, human
The subject of assay [1] is PMN suppressor phenotype induced by malignant effusions. The assay is described as follows: Coculture of PMN and stimulated T cells with malignant effusions (pleural fluid, ascites) of various metastatic cancers; T cell proliferation. The conditions noted are these: Cp40-treated malignant pleural fluid/ascites from various metastatic cancers (n=7). From the text: We analyzed whether the PMN suppressor phenotype induced by EOC ascites would also occur following PMN exposure to other malignant effusions. We observed a similar PMN suppressor phenotype when PMN and anti-CD3/CD28-stimulated T cells were cocultured with malignant pleural and ascites supernatants from patients with a number of metastatic cancers (18/20 samples induced a PMN suppressor or intermediate suppressor phenotype). Using samples that met the suppressor definition (Table 3), the PMN suppressor phenotype induced by malignant pleural and ascites was also abrogated by Cp40-treatment (FIG. 3K).
Patients and Specimens. Participants included healthy donors, control female patients with a benign adnexal mass undergoing resection surgery, and cancer patients with malignant effusions. Healthy donors (n=4) were Caucasian, aged 26-51, and equally divided between sexes. […]
Freshly isolated T cells (1e5) were stimulated with anti-CD3/CD28 Dynabeads (2.5 μl; Thermo Fisher Scientific) and cocultured with autologous PMN (1:1) and ascites supernatants (50% final well volume) in an incubator at 37° C., 5% CO2. […] Cells were harvested onto a Filtermat and counted on a Beta counter. Results are expressed as net cpm [calculated by subtracting the average cpm of unstimulated T cells from the average cpm of stimulated T cells]. […]

For assay [2], the system named is PMN suppressor phenotype (suppression of anti-CD3/CD28-stimulated T cell proliferation). The experiment in a line: Coculture of PMN with ascites supernatants and anti-CD3/CD28-stimulated T cells; T cell proliferation by [3H] thymidine incorporation. The protocol: Freshly isolated T cells (1e5) were stimulated with anti-CD3/CD28 Dynabeads (2.5 μl; Thermo Fisher Scientific) and cocultured with autologous PMN (1:1) and ascites supernatants (50% final well volume) in an incubator at 37° C., 5% CO2. After 72 h, [^3H] thymidine (1 μCi per well) was added and allowed to incorporate for 16-18 h. Cells were harvested onto a Filtermat and counted on a Beta counter. Results are expressed as net cpm [calculated by subtracting the average cpm of unstimulated T cells from the average cpm of stimulated T cells].
Where indicated, T cells, PMN, and ascites supernatants underwent various pretreatments. Where indicated, T cells were pretreated for lh with neutralizing antibody against ICAM-I (1-10 μg), IgG1 isotype (1-10 μg), or media (RPMI 1640, 5-10% heat-inactivated FBS, HEPES, sodium pyruvate, non-essential amino acids, and penicillin-streptomycin).
Where indicated, PMN were pretreated for lh with neutralizing antibody against CD11b (1-10 μg), TGF-beta receptor 1 (1-10 μg) or IgG1 isotype (1-10 μg); thapsigargin (THG, 0.5-2 μM), diphenyleneiodonium (DPI, 1-25 μM), N-Formylmethionine-leucyl-phenylalanine (fMLF, 1-100 nM), brefeldin-A (1-10 μg/mL), ER export inhibitor 1 (Exol, 20-75 μM), CI-amidine (10-20 μM), SNARE decoys: TAT-SNAP23 (0.6-0.9 μg/mL), TAT-SYN4 (0.6-0.9 μg/mL), TAT-GST (0.6-0.9 μg/mL) (produced as described in the laboratory of Dr. Kenneth McLeish), puromycin and actinomycin-D (1-5 μg/mL), or with media.
Where indicated, ascites supernatants were pretreated with heat (56° C., lh) to denature heat-labile constituents or proteinase-K (100 μM, 37° C., 12 h) to degrade proteins. Two formulations of compstatin, a peptide C3 inhibitor, were used: CS (250 μM, 30° C., 2 h, Tocris) and Cp40 (1.25-20 μM, 30° C., 2 h), as well as a scramble peptide. In separate studies, ascites supernatants were ultra-centrifuged (100,000g, 4° C., 1.5 h) to separate the membrane-rich (MR-ASC) and membrane-depleted (MD-ASC) fractions. In others, ascites supernatants were pretreated for lh with neutralizing antibody against C5 (0.5-1.0 μg, A217; Quidel, San Diego, Calif.) or C7 (0.5-1.0 μg, A221; Quidel) or IgG1 isotype (0.5-1.0 μg), or with OmCI (0.6-1.2 μM), a peptide C5 inhibitor derived from the saliva of Ornithodoros moubata (35, 36).
Background: Incorporation of labelled thymidine or its analogues reports DNA synthesis.

A further assay relates to TALs. The assay is described as follows: Coculture of TALs with autologous ascites and healthy donor PMN; anti-CD3/CD28-stimulated proliferation. As to conditions: Cp40-ASC; TALs from n=3 patients, PMN from healthy donors. From the text:
FIG. 15. Inhibition of complement C3 activation abrogates the PMN suppressor phenotype induced by malignant effusions. […] The abrogation effect of Cp40 was highly robust, and was observed consistently in at least 10 separate experiments and 15 different ascites samples. […] C) Cryopreserved or fresh TALs (from n=3 patients) were cocultured with autologous ASC and/or PMN from healthy donors. […] Statistics are by ANOVA as compared to +CD3/CD28+ ASC+PMN (*, p<0.05; **, p<0.01; ***, p<0.001).
Inhibition of C3 abrogates neutrophil suppressor phenotype on EOC TALs In patients with metastatic EOC, tumor antigen-specific CD8^+ T cells have impaired effector function and increased co-expression of PD-1 and LAG-3 compared to circulating lymphocytes, and effector function was enhanced with blockade of PD-1 and LAG-3. We confirmed high expression of PD-1 and LAG-3 on TALs from the ascites of patients with newly diagnosed EOC (not shown). We next cocultured cryopreserved or fresh TALs from 3 patients with autologous ascites and/or neutrophils from healthy donors.

Molecules are shown by their SMILES. Entries after “also recorded” stand apart in the source; their conditions may differ.

In the case of `CC[C@H](C)[C@H](NC(=O)[C@H](N)Cc1ccc(O)cc1)C(=O)N[C@H]1CSSC[C@@H](C(=O)N(C)[C@H](C(N)=O)[C@@H](C)CC)NC(=O)[C@H](CCCNC(=N)N)NC(=O)[C@H](Cc2c[nH]cn2)NC(=O)[C@H](C)NC(=O)CN(C)C(=O)[C@H](Cc2c[nH]c3ccccc23)NC(=O)[C@H](CC(=O)O)NC(=O)[C@H](CCC(N)=O)NC(=O)[C@H](Cc2cn(C)c3ccccc23)NC(=O)[C@H](C(C)C)NC1=O` [Cp40], in assay [1], the “effect on PMN suppressor phenotype induced by malignant effusions” value is listed as “abrogated by Cp40-treatment in all of the tested samples”. The “effect on PMN suppressor phenotype” value in assay [2] (added to ASC 2 h prior to coculture with PMN and T cells, CS 250 μM, Cp40 20 μM, scramble peptide 20 μM) is given as “completely abrogated the PMN suppressor phenotype; also recorded: fully abrogated the PMN suppressor phenotype; also recorded: completely abrogated the neutrophil suppressor phenotype”. In addition, in assay [2] (concentration-titration study, FIG. 15B), the “Cp40 concentration sufficient to abrogate the PMN suppressor phenotype” value is 2.5-20 ∥M. Further, the “Cp40 concentration sufficient to fully abrogate the PMN suppressor phenotype” value in assay [2] (titration study, ASC pretreated (n=3)) came out at 5 µM. For the same molecule, the “effect on suppression of stimulated TAL proliferation” value in the assay on TALs is given as “fully abrogated”.
